In publication PMC11212260, “Next-generation neuropeptide Y receptor small-molecule agonists inhibit mosquito-biting behavior” (Parasites & Vectors, 2024):
Several values for one entry are separate records, joined by “and”; a condition that tells them apart may be missing. Equal values may be shown once. Read-outs that look alike come from different tables or passages of the source.

Assays:
[1] = biological target: Ae. aegypti NPYLR7 (Aedes aegypti, UniProt U5N1H5); test: In vitro calcium (GCaMP6s) FLIPR assay in HEK293T cells transfected with NPYLR7; assay type: cell-based; details: for in vitro potency (in words): relative to reference compound TDI-012631; for activation at 100 µM: single replicate of the dose-response curve
Procedure: The in vitro screening assay was adapted from, and carried out at HD Biosciences (HDB, Shanghai) as follows: HEK293T (Thermo Fisher Scientific) cells were grown in Dulbecco’s modified Eagle medium (DMEM) (high glucose, with glutamine), 10% fetal bovine serum, 1% penicillin–streptomycin (Pen/Strep), seeded in a 75 cm^2 flask, and incubated at 37 °C and 5% CO2. Cells were transiently transfected with 1 μg of each plasmid expressing GCaMP6s (Addgene […]) (Chen et al., 2013), mouse Gqα15 (Addgene #40753) (Offermanns and Simon, 1995) and Ae. aegypti NPYLR7 (Addgene #52392) (Duvall et al. 2019) using Lipofectamine 2000 (Invitrogen) in 4 ml of Opti-MEM (Invitrogen). This mixture was added to a plate after 20 min and incubated for 6–8 h. Cells were then trypsinized, resuspended in phenol-free media, and plated in a 384-well plate (Greiner Bio-One) at a density of 20,000 cells per 40 μl, and incubated overnight (37 °C, 5% CO2). Cells were imaged directly in phenol-free media. Plates were loaded into a Molecular Devices fluorescence imaging plate reader (FLIPR) with an excitation wavelength of 470–495 nm and an emitted wavelength of 515–575 nm. Plates were imaged every second for 5 min. After 30 s of baseline fluorescence recording, 10 μl of the test compound in reading buffer [Hank’s Balanced Salt Solution (Gibco) + 20 mM HEPES (Sigma-Aldrich)] was added. Concentrations tested ranged from 0 to 100 μM. Data were collected in raw fluorescence units (RFU).
Each test plate included replicates of 10 μM FMRFa3 (H‐Ala‐Gly‐Gln‐Gly‐Phe‐Met‐Arg‐Phe‐NH2), an Ae. aegypti neuropeptide agonist of NPYLR7 used to calculate the hundred percent effect (HPE). The zero percent effect (ZPE) control was calculated as a response to buffer alone. The Z′ factor was calculated for each plate by Z^′=1-3σHPE+3σZPE/|μHPE-μZPE| . Plates with Z′ < 0.5 were excluded from analysis. Raw fluorescence units (RFU) were converted to percent effect relative to the average of the ZPE and HPE. Percent effect = (sample luminescence − average ZPE)/(average HPE − average ZPE)×100. […] Each replicate was plotted as percent effect versus log[concentration], and replicates with maximal responses between 20 and 250% were used for EC50 calculations. Relative EC50 was calculated using an [Agonist] versus response–variable slope four-parameter model where Y=Bottom+(X^Hillslope)∗(Top-Bottom)/(X^HillSlope+EC50^HillSlope) . For compounds with multiple replicates, the relative EC50 of each replicate was averaged.

[2] = system: Aedes aegypti (Orlando strain) females; test: Host-seeking screening assay (miniport olfactometer); assay type: in vivo; details: for Attraction (relative to saline) / Host-seeking relative to saline (test compound % host-seeking/average matched saline % host-seeking): fed 1 μM in saline, tested 48 h post-meal; for Attraction (relative to saline): per-compound value of Fig. 3C; for Host-seeking relative to saline (test compound % host-seeking/average matched saline % host-seeking): individual replicates
Procedure: (§1) Groups of 60–150 females were placed in bucket cages with a diameter of 21.6 cm and height of 16.5 cm (VWR) and fasted with access to water for 24 h prior to feeding. Meals were delivered to females via Glytube membrane feeders as described previously. Meals consisted of 1.5 ml sheep blood (HemoStat Laboratories), saline (400 mM NaHCO3 + dih2O), or saline and test compound. Lyophilized compounds were stored at room temperature until use. High-concentration stocks (30 mM in 100% dimethyl sulfoxide [DMSO]) (Sigma-Aldrich) were stored at −20 °C and diluted in saline immediately prior to feeding. Once prepared, meals and glycerol heating elements were warmed in a 42 °C water bath for 15 min to provide warmth to attract mosquitos to feed. ATP (1 mM final concentration) and test compounds (1 μM final concentration) were added prior to placing the meal on top of the mesh on the cage containing female mosquitos. Females were allowed 15–20 min to feed to repletion. Abdominal engorgement was scored by eye and confirmed by weighing females to ensure full feeding (Data S1). […] Females were returned to their original cage with a diH2O wick for 48 h prior to behavioral testing. The lethality of each compound was measured by counting the number of dead females in each cage 24 h post-meal.
Miniport olfactometers were fabricated in-house as described previously. Information regarding design, construction, and use can be found at https://github.com/VosshallLab/Miniport-Construction. Miniport canisters consisted of a 6″ × 3″ × 3″ acrylic tube with a mesh screen to allow for air flow. Groups of 10–20 females were loaded into canisters 24 h post-meal. Females were left in canisters overnight to acclimate with two cotton balls soaked in diH20 to prevent desiccation. Behavior trials began 48 h post-meal. Canisters were randomly assigned to attraction traps 1–4 and given 5 min to acclimate. The stimulus end of the trap was connected to a flowmeter that supplied 5% CO2 at a rate of 30 ml/min. Thirty seconds of CO2 flow was supplied to activate females prior to opening the sliding door. Once opened, the sliding door gave females access to the attraction trap baited with a human-scented nylon stocking previously worn by the same experimenter for 8–10 h to collect body odor and stored in a plastic bag at −20 °C until use. After 5 min, the sliding door was closed and attraction was scored as mosquitoes in the attraction trap/total number of mosquitoes. For each experiment data were normalized to the matched average saline attraction from the same experiment (% attracted/average saline attraction). Any dead mosquitoes were excluded from the analysis. Non-fed females and blood-fed females served as environmental control groups while the saline-fed females served as the vehicle control each day. If non-fed or saline-fed females were less than 50% attracted or if blood-fed females were more than 20% attracted behavioral trials were halted and all data from that experimental day were discarded.

[3] = system: Aedes aegypti (Orlando strain) females; test: Biting assay (mouse-in-cage); assay type: in vivo; design: key to Difference between medians: Actual (vs. saline) / Difference between medians: Hodges-Lehmann (vs. saline): differences in percent biting (blood-fed/total females, %); details: for Difference between medians: Actual (vs. saline) / Difference between medians: Hodges-Lehmann (vs. saline) / Median (percent freshly blood-fed) / Significantly different (P < 0.05)? vs. saline: fed 1 μM; for Percentage of females that freshly blood-fed on an anesthetized mouse: fed 1 μM 48 h prior, 15 min exposure, individual replicates; for effect on biting / blood-feeding from a live host (in words): fed at a dose of 1 μM
Procedure: as §1, with “ATP (1 mM final concentration) and test compounds (1 μM final concentration) were added prior to placing the meal on top of the mesh on the cage containing female mosquitos.” left out
This assay was modified from. Females were fed and scored as described above. Forty-eight hours post-meal, females were anesthetized in a 4 °C cold room and aspirated into a petri dish (Thermo Fisher Biosciences) with a randomly assigned color powder (Slice of the Moon; Chameleon Colors) to mark their treatment group. Females were then individually removed from the color powder, placed inside a cage measuring 91 cm × 61 cm × 61 cm (BugDorm), and allowed 2–4 h to recover. Each experiment consisted of a cage with 12–20 females in each treatment group including environmental (non-fed and blood-fed) and vehicle (saline-fed) control groups. The experiment began once an anesthetized mouse was introduced to the center of the cage, and females were allowed 15 min to blood-feed. The mouse was then removed, and the cage was placed at 4 °C to anesthetize females for collection. Females were aspirated into a large glass petri dish (Pyrex) and scored under a dissection microscope (Nikon SMZ1500) for powder color and blood-feeding status. Females were scored as blood-fed if fresh blood was present in the abdomen. Percent biting was calculated as females freshly blood-fed/total females in each respective treatment group.

[4] = relative EC50, percent effect relative to 10 μM FMRFa3, read-out: EC50
[5] = EC50 of the individual assay date/plate (assay date), read-out: EC50
[6] = Figure 1E Summary, third list (n = 39), read-out: Reported Metric (Summary list)
[7] = HEK-293T, single replicate, normalised response
[8] = sheet Figure 3C, unit inferred, read-out: EC50
[9] = summary EC50 per compound (mean over assay dates), the unit is taken from the neighbouring EC50 (uM) column, read-out: Reported Metric
[10] = Figure 1E Summary, second list (n = 48), read-out: Reported Metric (Summary list)

Chain of Ae. aegypti NPYLR7 (U5N1H5 entry or part of it): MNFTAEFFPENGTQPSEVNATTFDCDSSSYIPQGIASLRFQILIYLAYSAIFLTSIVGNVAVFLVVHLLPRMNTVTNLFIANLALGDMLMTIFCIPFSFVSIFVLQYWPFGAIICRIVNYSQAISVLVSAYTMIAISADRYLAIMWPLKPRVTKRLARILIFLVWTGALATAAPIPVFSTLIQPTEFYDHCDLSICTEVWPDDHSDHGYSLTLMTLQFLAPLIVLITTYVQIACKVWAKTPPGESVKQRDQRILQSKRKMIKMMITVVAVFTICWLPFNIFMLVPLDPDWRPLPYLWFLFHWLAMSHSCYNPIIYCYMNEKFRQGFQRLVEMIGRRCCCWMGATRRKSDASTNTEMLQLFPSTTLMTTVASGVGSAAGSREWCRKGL

Row | SMILES | EC50 [1, 4] | in vitro potency (in words) [1] | Attraction (relative to saline) [2] | Difference between medians: Actual (vs. saline) [3] | Difference between medians: Hodges-Lehmann (vs. saline) [3] | Median (percent freshly blood-fed) [3] | Significantly different (P < 0.05)? vs. saline [3] | effect on biting / blood-feeding from a live host (in words) [3] | EC50 [1, 5] | EC50 [1, 6] | activation at 11.1111 µM [1, 7] | activation at 33.3333 µM [1, 7] | activation at 100 µM ([1]; HEK-293T, normalised response) | EC50 [1, 8] | EC50 [1, 9] | EC50 [1, 10] | also measured
1 | CNc1nc(NC(=N)N)nc2cc(OCC3CCOCC3)ccc12 [TDI-014188] | 0.0602 µM | significantly improved in vitro potency | 0.895 | -21.9 | -21 | 50.00, n=11% | Yes | reduced biting behavior |  |  |  |  |  |  |  |  | Percentage of females that freshly blood-fed on an anesthetized mouse ([3]; listed as TDI-04188): 17% and 78% and 72% and 33% and 47% and 67% and 53%
2 | COc1ccc(COc2ccc3c(C)nc(NC(=N)N)nc3c2)cc1OC [TDI-014180] | 0.00192 µM |  | 0.93 |  |  |  |  |  | 0.00192 µM | 0.00192 µM | 74% | 81.8% | 63.8% | 0.00192 µM | 0.00192 µM |  | activation at 0.0152 µM ([1]; HEK-293T, 0.0152 uM, single replicate, normalised response): 42.4%; activation at 0.0457 µM ([1]; HEK-293T, 0.0457 uM, single replicate, normalised response): 59.4%; activation at 0.1372 µM ([1]; HEK-293T, 0.1372 uM, single replicate, normalised response): 67.9%; activation at 0.4115 µM ([1]; HEK-293T, 0.4115 uM, single replicate, normalised response): 85.1%; activation at 3.7037 µM ([1]; HEK-293T, 3.7037 uM, single replicate, normalised response): 96.7%; Host-seeking relative to saline (test compound % host-seeking/average matched saline % host-seeking) ([2]; listed as TDI-04180): 0.93
3 | Cc1nc(NC(=N)N)nc2cc(OCC3CCCOC3)ccc12 (stereo not drawn) [TDI-014167] | 7.37 µM |  | 0.975 |  |  |  |  |  | 7.37 µM |  |  |  | 66.1% | 7.37 µM | 7.37 µM | 7.37 µM | Host-seeking relative to saline (test compound % host-seeking/average matched saline % host-seeking) ([2]; listed as TDI-04167): 0.97
4 | COc1ccc(COc2ccc3c(C)nc(NC(=N)N)nc3c2)cc1 [TDI-013000] | 0.0277 µM |  | 0.925 |  |  |  |  |  |  | 0.0277 µM |  |  |  |  |  |  | EC50 ([1]; Figure 1E summary value per compound, repeated on each replicate line, read-out: Reported Metric (EC50 summarised over assay dates)): 0.0277 µM; EC50 ([1]; fit per assay date/plate (c2), repeated on the replicate lines of one date, read-out: EC50): 0.0817 µM and 0.0282 µM; EC50 ([1]; summary value per compound, matches the mean of the EC50 (uM) values of the assay dates, column head prints no unit, Figure 1 Panel E, read-out: Reported Metric): 0.0277 µM
5 | Cc1nc(NC(=N)N)nc2cc(OCc3ccc(OC(F)F)cc3)ccc12 [TDI-014170] | 1.63 µM | high in vitro potency | 0.91 | -19.9 | -11 | 59.60, n=9% | No | nor did it significantly reduce biting | 1.63 µM | 1.63 µM | 80.9% | 99.8% | 128% |  | 1.63 µM |  | effect on host-seeking (in words) ([2]; fed at a dose of 1 μM): did not reduce host-seeking; Percentage of females that freshly blood-fed on an anesthetized mouse ([3]; listed as TDI-04170): 44% and 57% and 85% and 74% and 53% and 82% and 55% and 62%
6 | Cc1nc(NC(=N)N)nc2cc(OCc3ccc(OC(F)(F)F)cc3)ccc12 [TDI-014172] | 19.7 µM |  | 0.975 |  |  |  |  |  | 19.7 µM |  | 57% | 89.6% |  | 19.7 µM | 19.7 µM | 19.7 µM | Host-seeking relative to saline (test compound % host-seeking/average matched saline % host-seeking) ([2]; listed as TDI-04172): 1 and 1.1
